# Results from patent US11622988B2, “Method for reducing fat accumulation by using tetramethylisoscutellarein” (TCI CO., LTD., priority 2018, dated 2023).
# Tested on: mouse bone marrow stromal cell OP9
# Test: Oil-red O staining of fat accumulation in differentiated OP9 cells
# Assay type: cell-based
# Conditions: 10 μg/mL, incubated 7-10 days, O.D. 510 nm
# Experimental: First, 8×10^4 mouse bone marrow stromal cell OP9 (ATCC® CRL-2749™) was seeded with 500 μL of pre-adipocyte expansion medium (supplemented with 90% minimum essential medium alpha medium (Gibco), […] (Gibco) and 1% penicillin/streptomycin (Gibco)) in a 24-well plate, and incubated at 37° C. for 7 days. Fresh differentiation medium (supplemented with 90% minimum essential medium alpha medium, 20% fetal bovine serum, and 1% penicillin/streptomycin) was replaced every three days. After 7 days, lipid droplet formation was observed using microscopy (ZEISS) to make sure the cells are fully differentiated.
# Thereafter, five groups of OP9 cells (i.e. an experimental group, three comparative groups (comparative group 1 to comparative group 3) and a control group) were prepared. […]
# The oil droplet was dissolved using 100% isopropanol, and the plate was put on shaker and incubation for 10 min. A volume of 100 μL was taken to 96-well plate for measuring the O.D ratio (510 nm) with the ELISA reader (BioTek).
# The statistical significance of the differences between each group was determined by Student's t-test in Microsoft Excel. […]
compound,measurement,value
COc1ccc(-c2cc(=O)c3c(OC)cc(OC)c(OC)c3o2)cc1 [tetramethylisoscutellarein],"oil red relative percentage, lower than the control group",28%
